{
  "source": "patent US11026943B2",
  "about": "“Aminoquinoline derivatives and uses thereof” (UNIVERSITY OF DELHI, priority 2012, dated 2021)",
  "key": {"Nurr1 LBD [1]": {"biological_target": "T1, Nurr1 LBD (Mus musculus, UniProt Q06219)", "T1 sequence (Q06219 328-598)": "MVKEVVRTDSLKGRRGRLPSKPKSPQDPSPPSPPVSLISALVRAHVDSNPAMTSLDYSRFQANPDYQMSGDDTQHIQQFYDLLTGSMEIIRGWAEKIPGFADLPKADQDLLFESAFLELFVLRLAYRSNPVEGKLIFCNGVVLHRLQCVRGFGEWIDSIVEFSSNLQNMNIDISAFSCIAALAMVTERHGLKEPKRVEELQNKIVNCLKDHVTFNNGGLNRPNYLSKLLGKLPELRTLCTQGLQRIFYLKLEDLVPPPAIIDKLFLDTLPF", "experiment": "Filter binding assay with [3H]-CQ (saturation and competition)", "description": "The basal level of transcriptional activity was normalized to 1. The bars represent means±SEM from three independent experiments. (FIG. 13C) Effect of Nurr1 specific siRNA on Nurr1 LBD's transactivation activity. […] (FIG. 13D) Human neuroblastoma SK-N-BE(2)C cells were transfected with the N-terminal flag-tagged SRC1 or SRC3 and the C-terminal myc-tagged full-length Nurr1. […] Cell lysates were immunoprecipitated (IP) using anti-flag antibodies and analyzed by immunoblotting (IB) using anti-myc antibodies. […] The fold induction was derived by comparing each luciferase activity to basal level obtained by non-SRC transfection. […] The concentrations (04) are shown next to the arrows. […] Specific binding was calculated as the difference of total and non-specific binding. The insert indicates Scatchard analysis of the specific binding. […] The data represent the average of triplicate from three independent experiments. All graphs, Kd, Ki, and Bmax values were generated using the non-linear regression program Prism version 5.02.\nGF/C filters were wet with in binding buffer and placed on a 48-place filter manifold. […] Filters were washed with 4×100 ml binding buffer, dried, and mixed with 5 ml Scintiverse BD (Fisher) and radioactivity was determined in a Beckman LS6000SC liquid scintillation counter. […] The mixture was applied to GF/C filter and filter was washed and counted as described above."}, "Nurr1 LBD [2]": {"biological_target": "T1, Nurr1 LBD", "experiment": "Nurr1 LBD GAL4 reporter assay (pSVGAL(DBD)-N(LBD), p8xGAL-Luc) in SK-N-BE(2)C cells", "type": "cell-based", "description": "(§1) The pTH2600LUC reporter construct contains the 2.6 kb upstream sequences of the rat tyrosine hydroxylase gene in front of a firefly luciferase gene in pGL3-basic vector. A Nurr1-expression plasmid, pSV40Nurr1, was kindly provided by Dr Orla M. Conneely at Baylor College of Medicine (Houston, Tex., USA). […] The VP16/SRC1 and VP16/SRC3 hybrid were constructed by inserting the transactivation domain of the VP16 protein upstream of SRC1 and SRC3, respectively. […] The recombinant proteins were purified by Ni-NTA column chromatography (Qiagen) according to the manufacturer's instruction. The integrity of all sequences was verified by DNA sequence analyses.\n(§2) Human neuroblastoma SK-N-BE(2)C cells were maintained in Dulbecco's modified Eagle's medium (DMEM) supplemented with 10% fetal bovine serum. All culture media contained 100 units/ml penicillin and 100 μg/ml streptomycin. For transfection, cells were plated at 1.5×10^5 cells/well in the DMEM media without antibiotic into 24-well plates 1 day prior to transfection. Transfections were carried out by the Lipofectamine plus (Invitrogen) according to the manufacture's protocol. Total DNA amount was 0.5 μg per well with 0.1 μg of pRSV-β-gal as an internal control. 6 hours after transfection, compounds in the DMEM media with 1% charcoal-stripped fetal calf serum was added and incubated overnight. Cells from each well were lysed with 100 μl of lysis buffer, which contains 25 mM Tris-phosphate (pH 7.8), 2 mM DTT, 2 mM CDTA (1,2-diaminocyclohexane-N,N,N′,N′-tetraacetic acid), 10% glycerol, and 1% Triton X-100. Then equal volume of firefly luciferase substrate was added and the luciferase activity was measured using a Luminometer plate reader and normalized for beta-galactosidase activity."}, "[3]": {"system": "primary cultures of rat mesencephalic DA neurons", "experiment": "6-OHDA-induced death in primary mesencephalic DA neurons (TH+ count, [3H]DA uptake)", "type": "cell-based", "conditions": "number of TH+ neurons and DA uptake; 20 μM 6-OHDA for 24 hr", "quoted_text": "Control DA neurons were treated with the above medium in the presence of a dopamine uptake blocker, 10 μM mazindol (Sigma). Cells were then washed with ice-cold Krebs Ringers solution and lysed with 0.5 M NaOH. Radioactivity was quantified by a liquid scintillation counter (Beckman, Fullerton, Calif.).\nTo prepare primary cultures of DA neurons, the ventral mesencephalon was removed from 14 day gestation Sprague Dawley rat embryo (Charles River, Cambridge, Mass.). Tissues were incubated with 0.01% trypsin in MEM (MEM, Invitrogen) for 10 min at 37° C. and triturated using a constricted Pasteur pipette. DA neurons were plated at 1.0×10^5 cells per 9 mm diameter glass cover slip precoated with 100 μg/ml poly-D-lysine (Sigma, St. Louis, Mo.) and 4 μg/ml laminin (Invitrogen). DA neurons were maintained at 37° C. in a humidified 5% CO2 atmosphere in minimum essential medium supplemented with 10% FBS (Hyclone), 2 mM glutamine and 6.0 g/l glucose. […]\nCells were fixed in 4% paraformaldehyde (PFA) for 20 min, washed and then incubated with blocking buffer [PBS, 10% goat serum (Invitrogen), 0.3% Triton X-100 (Sigma)] for 1 hour. […] Following washes with PBS, appropriate fluorescence-tagged secondary antibodies (Jackson Immunoresearch Laboratories, West Grove, Pa.) were used for visualization. […]"}, "[4]": {"system": "Nurr1 recruitment to TH promoter NL1 and NL3", "experiment": "Chromatin immunoprecipitation in PC12 cells", "type": "cell-based, rat", "conditions": "20 μM AQ or 75 μM CQ for 15 hrs", "experimental": "Error bars represent standard deviations.\nCells were washed with PBS, fixed with 1% formaldehyde, lysed, and sonicated according to the manufacturer's instruction (Active Motif). 25 μg of soluble chromatin DNA were co-immunoprecipitated 1 μg of Nurr1 specific antibody (E-20, Santa Cruz) or control antibody (rabbit IgG, santa Cruz). […] Values are shown as fold induction compared to mock treated control cells."}, "[5]": {"system": "LBDs of Nur77, GR, LXR, RXR, PPARα, PPARγ", "experiment": "Target selectivity: GAL4-LBD reporter assays of other nuclear receptors", "type": "cell-based", "conditions": "FIG. 19; 30 μM AQ", "quoted_text": "The positive reactivity of these NR constructs was confirmed by the known activators (2 nM dexamethasone, 20 nM retinoic acid, 2 μM GW3965, 50 nM GW7647, and 5 nM GW1929 for GR, RXR, LXR, PPARα, and PPARγ, respectively). The basal level of transcriptional activity was normalized to 1. Bars represent means±SEM from three independent experiments.\n(§3) Human neuroblastoma SK-N-BE(2)C cells were maintained in Dulbecco's modified Eagle's medium (DMEM) supplemented with 10% fetal bovine serum. All culture media contained 100 units/ml penicillin and 100 μg/ml streptomycin. For transfection, cells were plated at 1.5×10^5 cells/well in the DMEM media without antibiotic into 24-well plates 1 day prior to transfection. Transfections were carried out by the Lipofectamine plus (Invitrogen) according to the manufacture's protocol. Total DNA amount was 0.5 μg per well with 0.1 μg of pRSV-β-gal as an internal control. 6 hours after transfection, compounds in the DMEM media with 1% charcoal-stripped fetal calf serum was added and incubated overnight. […] Then equal volume of firefly luciferase substrate was added and the luciferase activity was measured using a Luminometer plate reader and normalized for beta-galactosidase activity."}, "MPTP-treated monkeys": {"system": "MPTP-treated monkeys", "conditions": "previous study; cited from earlier work"}, "PC12 cells": {"system": "PC12 cells", "experiment": "6-OHDA toxicity in PC12 cells (MTT reduction assay)", "type": "cell-based, rat", "experimental": "Cell viabilities were determined by the conventional MTT reduction assay. After incubation for indicated times, cells were treated with the MTT solution (final concentration, 1 mg/ml, Sigma) for 1 h. Formazan grains formed in intact cells were solubilized with MTT Solubilization. Solution containing 10% Triton X-100 plus 0.1 N HCl in anhydrous isopropanol for 24 h and then absorbance at 570 nm was measured with a microplate reader (Molecular Devices, Menlo Park, Calif.)."}, "Nurr1": {"biological_target": "T2, Nurr1 (Mus musculus, UniProt Q06219)", "T2 construct": "Full-length mouse Nurr1cDNA was amplified by RT-PCR from pSV40Nurr1; expressed in transfected cells; host or cells: SK-N-BE(2)C human neuroblastoma cells", "T2 sequence (Q06219 whole entry)": "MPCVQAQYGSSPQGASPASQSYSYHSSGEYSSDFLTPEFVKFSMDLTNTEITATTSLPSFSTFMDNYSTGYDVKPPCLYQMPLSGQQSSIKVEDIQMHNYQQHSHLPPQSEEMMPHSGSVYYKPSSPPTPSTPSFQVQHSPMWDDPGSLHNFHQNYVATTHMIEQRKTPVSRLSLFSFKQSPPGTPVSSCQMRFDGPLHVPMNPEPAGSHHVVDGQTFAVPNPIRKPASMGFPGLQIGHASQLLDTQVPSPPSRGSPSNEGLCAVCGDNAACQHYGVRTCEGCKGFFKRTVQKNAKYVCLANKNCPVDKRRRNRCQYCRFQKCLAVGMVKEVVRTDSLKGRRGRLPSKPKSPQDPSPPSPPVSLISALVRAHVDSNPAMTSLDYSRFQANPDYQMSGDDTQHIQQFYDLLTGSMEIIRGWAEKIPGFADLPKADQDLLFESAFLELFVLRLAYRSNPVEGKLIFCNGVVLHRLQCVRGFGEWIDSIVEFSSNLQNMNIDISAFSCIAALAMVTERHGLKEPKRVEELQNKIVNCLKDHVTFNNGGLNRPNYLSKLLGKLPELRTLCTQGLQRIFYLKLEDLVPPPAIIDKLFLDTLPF", "experiment": "High-throughput cell-based screen of Nurr1-dependent TH promoter activation", "conditions": "library of 960 FDA-approved drugs", "excerpt": "The pTH2600LUC reporter construct contains the 2.6 kb upstream sequences of the rat tyrosine hydroxylase gene in front of a firefly luciferase gene in pGL3-basic vector. A Nurr1-expression plasmid, pSV40Nurr1, was kindly provided by Dr Orla M. Conneely at Baylor College of Medicine (Houston, Tex., USA). Full-length mouse Nurr1cDNA was amplified by RT-PCR from pSV40Nurr1 using forward 5′-[sequence]-3′ (SEQ ID NO: 1) and reverse 5′-[sequence]-3′ (SEQ ID NO: 2) oligonucleotides.\nas §3"}, "full-length Nurr1": {"biological_target": "T3, full-length Nurr1 (Mus musculus, UniProt Q06219)", "T3 construct": "Full-length mouse Nurr1cDNA was amplified by RT-PCR from pSV40Nurr1; expressed in transfected cells; host or cells: SK-N-BE(2)C human neuroblastoma cells", "T3 sequence (Q06219 whole entry)": "as above", "experiment": "Full-length Nurr1 reporter assay (p4xNL3-Luc) in SK-N-BE(2)C cells", "type": "cell-based", "conditions": "dose-dependent, maximal", "description": "as §1\nas §2, with “6 hours after transfection, compounds in the DMEM media with 1% charcoal-stripped fetal calf serum was added and incubated overnight. Cells from each well were lysed with 100 μl of lysis buffer, which contains 25 mM Tris-phosphate (pH 7.8), 2 mM DTT, 2 mM CDTA (1,2-diaminocyclohexane-N,N,N′,N′-tetraacetic acid), 10% glycerol, and 1% Triton X-100.” left out"}, "aphakia (ak/ak) mice": {"system": "aphakia (ak/ak) mice", "experiment": "Behavioral studies in ak/ak mice (Pole, Challenging Beam, Cylinder, Rotarod) and SN histology", "type": "in vivo, mouse", "conditions": "L-DOPA 8 mg/kg i.p. once per day", "experimental": "Either 20 mg/kg of AQ (AQ group) or the saline (Saline group) was intraperitoneally injected (I.P.) twice per day for two weeks. 8 mg/kg of L-DOPA (L-DOPA group) in 0.5% DMSO was injected (I.P.) once per day for two weeks. The L-DOPA group was given 12.5 mg/kg benserazide 20 min prior to administration of L-DOPA.\nEach ak mouse was randomly assigned into one of three experiment groups, (1) saline group (negative control; n=8), (2) L-DOPA group (positive control; n=8), (3) AQ group (n=10). Each WT or rdl mouse was randomly divided into two groups, (1) saline group (n=8) and (2) AQ group (n=10). Pole Test, Challenging Beam Traversal Test, and Cylinder Test were performed at two time points, immediately and one month after two weeks of either AQ or saline injection. Each mouse ran each task twice. Rota rod test was performed immediately after two weeks of either drug or saline injection. Acclimation and data recording process were identical to the rat study described above. All tasks were performed as described previously^11 and the short description of each task is as follows.\nA vertical wooden pole 50 cm in length and 1 cm in diameter was used for Pole Test. Each mouse was gently placed head upwards on top of the pole which is placed on each animal's home cage. Each mouse ran tree trials per session during 2 training sessions. On the testing day, mice ran three trials. Two parameters (the meantime to orient downward and the total travel mean time) were used for the statistical analysis.\nA 1 m length of plastic beam was used for Challenging Beam Traversal Test. The starting width of the beam was 3.5 cm and it gradually narrowed in 1 c increments to 0.5 cm at the other end site of the beam. Animals were trained to walk from the wide end to the other end for 2 sessions, three trials per session before testing. A mesh grid was removed during the training period. On the testing day, a mesh grid (1 cm square) covering the beam surface was equipped leaving a […] room between the grid and the beam surface. On the testing day, mice ran three trials. Two parameters (the mean number of steps taken by each animal and the mean time to traverse across three trials) were collected and used for statistical analysis.\nA small transparent cylinder (height, 15.5 cm; diameter, 12.7 cm) was used to evaluate somatosensory motor function. Mice were placed in the cylinder and their rears were counted for 5 minutes. The forelimb touching the Plexiglas wall (a vertical movement) is defined as a full rear. The mean number of forelimb use was calculated for the statistical analysis. […]\nThe Rota rod equipment (Med-Associates, Inc, Albans, Vt., USA) was used to measure motor coordination. […] The mean latency to fall off from the Rota rod was measured for the statistical analysis. […]"}},
  "note": "Where “and” joins values, the source holds several entries; their conditions need not be identical. Equal entries are not always repeated.",
  "data": [
    {"smiles": "CCN(CC)CCCC(C)Nc1ccnc2cc(Cl)ccc12", "note": "(stereo not shown) [[^3H]-CQ]", "values": [
      {"measurement": "Kd", "setting": "Nurr1 LBD [1]; radioligand saturation binding, read-out: dissociation constant, saturable binding to Nurr1-LBD", "value": 0.27, "unit": "µM"}
    ]},
    {"smiles": "CCN(CC)CCCC(C)Nc1ccnc2cc(Cl)ccc12", "note": "(stereo not shown) [CQ, chloroquine]", "values": [
      {"measurement": "Ki", "setting": "Nurr1 LBD [1]; 500 nM [3H]-CQ", "value": 0.088, "unit": "µM"},
      {"measurement": "EC50", "setting": "Nurr1 LBD [2]; read-out: EC50 Nurr1 LBD-based reporter activity", "value": "~60 µM and ~50 µM"},
      {"measurement": "6-OHDA-induced death in primary DA neurons", "setting": "[3]", "value": "significantly inhibit"},
      {"measurement": "Nurr1 recruitment to NL1 and NL3 sites of the TH promoter", "setting": "[4]", "value": "recruited to both NL1 and NL3 sites"},
      {"measurement": "transcriptional activity of other nuclear receptors", "setting": "[5]", "value": "unable to induce"},
      {"measurement": "MPTP-induced parkinsonian motor abnormalities", "setting": "MPTP-treated monkeys", "value": "protected them from MPTP-induced parkinsonian motor abnormalities"},
      {"measurement": "neuroprotective effect in PC12 cells", "setting": "PC12 cells", "value": "neuroprotective effect"}
    ]},
    {"smiles": "COc1cc(NC(C)CCCN)c2ncccc2c1", "note": "(stereo not shown) [primaquine]", "values": [
      {"measurement": "Ki, competition with [3H]-CQ for binding to Nurr1-LBD", "setting": "Nurr1 LBD [1]; 500 nM [3H]-CQ", "value": "unable to compete"},
      {"measurement": "transactivation of Nurr1 LBD / Nurr1 transcriptional function", "setting": "Nurr1 LBD [2]; wide range of concentrations, FIG. 18", "value": "couldn't enhance the Nurr1 transcriptional function"}
    ]},
    {"smiles": "O=C(OCC(O)CO)c1ccccc1Nc1ccnc2cc(Cl)ccc12", "note": "(stereo not shown) [glafenine]", "values": [
      {"measurement": "screen outcome", "setting": "Nurr1", "value": "hit compounds"},
      {"measurement": "luciferase reporter activity, fold activation", "setting": "full-length Nurr1", "value": "approximately 1.6 fold"}
    ]},
    {"smiles": "N[C@@H](Cc1ccc(O)c(O)c1)C(=O)O", "note": "[L-DOPA]", "values": [
      {"measurement": "rearing activity in Cylinder test", "setting": "aphakia (ak/ak) mice", "value": "dramatically induced rearing activity"}
    ]}
  ]
}
